Experimental data as given in US20170246230A1, “PHARMACEUTICAL COMPOSITION FOR TREATING INFERTILITY, AND PREPARATION METHOD AND USE THEREOF” (priority 2014, published 2017).

How the values were obtained:
Assay type in all cases: in vivo, Kunming mice
[1] = test system: mice with sterility induced by androgens; assay: Estradiol (E2) content in sera of mice with sterility induced by androgens (ELISA); details: 18 mg/kg intragastric, 4 weeks, TP-modelled female mice, serum
Method: Blank control group: Intragastrically administrated with distilled water on daily basis at a dose of 2 ml/d;
Model control group: Intragastrically administrated with distilled water on daily basis and at a dose of 2 ml/d;
Irrigation was stopped for 48 h, orbital blood of mice was collected, serum was separated and enzyme linked immunosorbent assay was used to detect E2.

[2] = test system: mice with sterility induced by androgens; assay: Conception conditions of mated female mice after the medication; details: 18 mg/kg, 4 weeks, 10 d after mating
Method: (§1) 120 Kunming female mice (20 days old) were randomly divided into 6 groups according to their weights and there were 20 in each group. 20 mice in the normal control group were subcutaneously injected with saline and the remaining 100 mice were used in modeling and subcutaneously injected with TP (testosterone propionate). The modeling method is described like this, 100 mice were subcutaneously injected with 0.06 mL TP (testosterone propionate), 4 d/time, continuous injection for 2 weeks and drug withdrawal for 1 weeks. Those mice after modelling were randomly divided into […], i.e. model control group, Clomifenecitrate capsules group and HDG (high-dose group), MDG (medium-dose group) and LDG (low-dose group) of the drug combination in the present invention.
(§2) After 4 weeks of administration, the drug was suspended for 48 h, 10 mice were executed in each group and the remaining 10 mice were left to carry out the conception rate test.
To put 10 mice from each cage into the cage where 4 normally-matured male mice. 10 d after the mating, uterus of female mice were dissected to observe the conception conditions.

[3] = test system: mice with sterility induced by androgens; assay: Quantities of follicles, oocytes and interstitial gland composition in ovary slices of androgen-sterile mice; details: 18 mg/kg intragastric, 4 weeks, TP-modelled mice
Method: as §1, §2
Mice were executed and their ovaries and uterus were removed. Ovaries were fixed with […] and tissue slices were observed under the ordinary optical microscope after the process of HE tinction and oil red 0 tinction. Uterus were fixed with 100 g/L formaldehyde and tissue slices were imbedded with paraffin and undergone the process of 4 μm slicing and ER marking. Light microscopy was used for observation after the hematoxylin counter staining.

## CCN(CC)CCOc1ccc(C(=C(Cl)c2ccccc2)c2ccccc2)cc1 [Clomifenecitrate capsules, Clomifenecitrate]
[1]
  E2: 12.76 ± 4.98 µg/L
[2]; 10 female mice
  Number of conception: 6 mice
[2]
  Rate of conception: 60.0%
[3]
  Interstitial gland composition: 24.96 ± 5.00
  Quantity of follicles: 37.6 ± 6.4 piece
  Quantity of oocytes: 8.7 ± 2.2 piece
